According to US20140154315A1, “Hydrophobic Preparations” (VAXCINE LTD., priority 2011, published 2014):

System: collagen-induced arthritis (CIA) in DBA-1 mice
Assay: Oral collagen II preparation in mouse collagen-induced arthritis model, Example 10
Type: in vivo
Settings: 20 ug dose, oral gavage 4 times before CIA induction; FIGS. 1 and 2
Method: • 1. Ten-twelve week old male DBA-1 mice were weighed and divided into 3 groups (n=8/group) as outlined below. All groups were treated orally (by gavage) 4 times (days −10, −7, −5 & −3) prior to induction of collagen-induced arthritis (CIA) by injection of 100 ug collagen in Complete Freunds Adjuvant at the base of the tail. • 2. Arthritis was induced in all animals on day 0, followed by a boost on day 21, and incidence and severity assessed and scored on days 5, 7, 9, 12, 14, 16, 19 and 21 after the boost. Three treatment groups with 8 animals per group were used as outlined below: • (i). CIA+gavage with oil alone • (ii). CIA+gavage with oil containing bovine collagen II (10 μg/dose) • (iii). CIA+gavage with bovine collagen II ([…])
Clinical scores of arthritis incidence (% of animals in each group affected with arthritis of any severity in any number of joints) and arthritis severity (the severity of disease in each individual mouse) was performed after CIA induction for the duration of the experiment. A standard arthritis scoring system was used as outlined below. Each paw is evaluated for swelling and deformity, scored and a total calculated for each animal.
Score 0: No arthritis Score 1:1-2 toes affected only Score 2: 3 or >toes and/or swelling of the paw (metacarpus/metatarsus) Score 3: swelling of the carpus/tarsus Score 4: deformity with ankylosis of the carpus/tarsus • 3. […]

collagen alone: bovine collagen II given by gavage without oil formulation
number of animals suffering from arthritis (incidence): reduction in the number of animals suffering from arthritis
